# Where two headings read alike, the source gives them in different places.
# What was measured:
# [1] = cited from earlier work
# [2] = cited from earlier work; remark: listed apart in the source
# plasma protein = details: once in the circulation; cited from earlier work
# [3] = behaviour of ketorolac tromethamine solutions outside pH 6.0-8.5; type: physicochemical
# Text: In the present invention, a stable and injectable pharmaceutical composition which contains an acetic acid class of NSAID is described. The pH value of the injectable pharmaceutical composition is maintained at 6.0-8.5, preferably 6.9-7.9. When the pH values of the ketorolac tromethamine solutions are lower than 6, the NSAID precipitates from the solutions.
# (4). Measure the pH of the solution in (3). If the pH is below 6.0, add an appropriate amount of the alkaline agent as described in (A) of the above “pH-adjusting agent” to the solution. If the pH is above 8.5, add an appropriate amount of the acidic agent as described in (B) of the above “pH-adjusting agent” to the solution. Cloudiness is observed when the pH of the solution is below 6. The solution will become clear after the pH adjustment to between 6.0-8.5.
# [4] = cited from earlier work; remark: listed apart in the source
# [5] = white to off-white crystalline substance; cited from earlier work
# [6] = cited from earlier work; remark: listed apart in the source
behaviour of solution ([3]; pH higher than 8.5),behaviour of solution ([3]; pH lower than 6),SMILES,pKa [1],water solubility [2],plasma protein bound (plasma protein) [%],terminal elimination half-life ([4]; geriatric patients) [h],terminal elimination half-life ([4]; young adults) [h],behaviour under prolonged exposure to light [5],"onset of the anti-inflammatory, analgesic, and antipyretic effects ([6]; after the intramuscular administration) [min]",time to maximum effect ([6]; after the intravenous or intramuscular administrations) [h],duration of therapeutic effects ([6]; in vivo) [h],time at which serum concentration reaches a peak ([4]; route not given)
color of the solutions changes,precipitates,NC(CO)(CO)CO.O=C(c1ccccc1)c1ccc2n1CCC2C(=O)O (stereo not shown) [ketorolac tromethamine],3.5,enhanced,99,4.7 to 8.6,3.8 to 6.3,discolors,30 to 60,1 to 2,4 to 6,–
–,–,"O=C(c1ccccc1)c1ccc2n1CCC2C(=O)O (racemic) [ketorolac, (±)-5-benzoyl-2,3-dihydro-1H-pyrrolizine-1-carboxylic acid]",–,low,–,–,–,–,–,–,–,about 2.9±1.8 minutes

# Source: patent publication US20030191187A1, “Injectable pharmaceutical composition containing a non-steroidal anti-inflammatory drug and method for preparing the same” (priority 2002, published 2003)
